US10603298B2, “Succinate dehydrogenase inhibitors (SDHi's)” (Medical Research Council, priority 2014, dated 2020)

Key:
[1] = test system: rat brain transient middle cerebral artery occlusion (tMCAO) IR injury; test: In vivo rat brain ischaemia and reperfusion (tMCAO): neurological score, infarct, histology; parameters: Median Neurological Score / Average Neurological Score: scale not given here; conditions: for Average Neurological Score / Median Neurological Score: dimethyl malonate 6 mg/kg/min i.v. infusion
From the text: The following murine models of warm ischaemia and/or IR injury were used: global ischaemia of ex vivo perfused mouse heart; in vivo mouse left descending coronary artery (LAD) ligation; in vivo rat brain transient middle cerebral artery occlusion (tMCAO); in vivo mouse kidney ischaemia by monolateral occlusion of the renal hilum; in vivo global ischaemia of the liver following cervical dislocation. The modelling of metabolic pathways in the ischaemic myocardium was done as described previously^11. The cell models of IR injury used were adult isolated primary rat cardiomyocytes and the mouse C2C12 myoblast cell line. Fluorescence within cardiomyocytes was assessed by laser scanning confocal microscopy. DHE fluorescence was used to measure ROS production, TMRM fluorescence in de-quench mode was used for mitochondrial membrane potential and NAD(P)H autofluorescence was used to assess the reduction potential of the NAD(P)H pools^8. To assess metabolic pathways in the ex vivo perfused mouse heart ^13C-labelled glucose, glutamine or aspartate were infused into the isolated heart and the ^13C isotopologues of CAC metabolites were then quantified by LC-MS. The effects of metabolic inhibitors on ischaemic metabolite accumulation and the distribution of ^13C-labels were assessed by i.v. infusion of metabolic inhibitors followed by LC-MS analysis of tissue metabolites. The redox state of the cardiac CoQ pool was assessed by LC. The amelioration of in vivo IR injury by metabolic inhibitors was assessed by i.v. administration of the inhibitors followed by measurement of the infarct size in the heart by triphenyltetrazolium chloride staining and in the brain by determining neurological function and infarct size by histology. Male spontaneously hypertensive stroke prone (SHRSP) rats from the colony maintained at the University of Glasgow (270-310 g) were anaesthetised with 5% isoflurane in oxygen and were intubated and ventilated throughout surgery (˜2.5% isoflurane/oxygen). Body temperature was maintained at 37±0.5° C. Animals underwent pre-stroke burrhole surgery^35 before transient middle cerebral artery occlusion (tMCAO, 45 min). Briefly, a silicone-coated monofilament was advanced (Doccol Corporation, USA) was advanced through the common carotid artery to block the origin of the MCA^36. Animals were maintained under anaesthesia during ischaemia. Immediately following removal of the filament, or after 5 mins of reperfusion, the brain was removed following cervical dislocation and infarct tissue separated from surrounding tissue on the ipsilateral side and snap frozen in liquid nitrogen for metabolomic analysis. Corresponding regions were taken from the contralateral side. […] These rats were then sacrificed by transcardiac perfusion fixation and the infarct area was assessed across 7 coronal levels following hematoxylin and eosin staining^39.

[2] = test system: succinate accumulation in the ischaemic myocardium; test: Succinate accumulation in the ischaemic myocardium in vivo (LC-MS); conditions: i.v. infusion in vivo, mouse; 30 min ischaemia
Description: For the in vivo heart IR model an open-chest, in situ heart model was used^31,32. Male mice (8-10 weeks; Charles River Laboratories, UK) were anaesthetised with sodium pentobarbital (70 mg/kg intraperitoneally (i.p.)), intubated endotracheally and ventilated with 3 cm H2O positive-end expiratory pressure. Adequacy of anaesthesia was monitored using corneal and withdrawal reflexes. Ventilation frequency was kept at 110 breaths per minute with tidal volume between 125-150 μL. A thoracotomy was performed and the heart exposed by stripping the pericardium. A prominent branch of the left anterior descending coronary artery (LAD) was surrounded by a 7-0 Prolene suture that was then passed through a small plastic tube. Ischaemia was induced by tightening the tubing against the heart surface. To assess metabolites during IR in vivo, mice were divided into three groups: 30 min ischaemia, 30 min ischaemia plus 5 min reperfusion and 30 min sham-operation in which the suture was placed but the LAD was not occluded. At the end of each protocol tissue was removed from the at risk and peripheral areas of the heart, selected visually by comparing white versus red tissue, and snap-frozen in liquid nitrogen. Sham-operated tissue was removed from the presumed risk zone. Infarct size was assessed after 30 min of ischaemia followed by 120 min reperfusion using 2% triphenyltetrazolium chloride staining and is expressed as a percentage of the risk zone^33. […] For the LC separation, column A was Sequant Zic-Hilic (150 mm×4.6 mm, internal diameter 3.5 μm) with a guard column (20 mm×2.1 mm 3.5 μm) from HiChrom, Reading, UK. […] (150 mm×2.1 mm i.d. 3.5 μm) with guard column (20 mm×2.1 mm i.d. […]) from HiChrom, Reading, UK. […] Spectra were analysed using both targeted and untargeted approaches. For the targeted approach spectra were analysed using XCalibur Qual Browser and XCalibur Quan Browser softwares (Thermo Scientific) by referencing to an internal library of compounds. […] The arrays of spectra were then statistically analysed using the functions explore.data and univariate of the R package mum a^40.

SMILES: COC(=O)CC(=O)OC [dimethyl malonate]
- Average Neurological Score ([1]; Baseline, tMCAO rats): 31.67
- Median Neurological Score ([1]; Baseline, tMCAO rats): 32.00
- Average Neurological Score ([1]; Day 1 after tMCAO): 22.67
- Median Neurological Score ([1]; Day 1 after tMCAO): 22.00
- Average Neurological Score ([1]; Day 2 after tMCAO): 24.00
- Median Neurological Score ([1]; Day 2 after tMCAO): 24.00
- Average Neurological Score ([1]; Day 3 after tMCAO): 24.33
- Median Neurological Score ([1]; Day 3 after tMCAO): 25.00
- neurological function associated with stroke ([1]; i.v. infusion during rat tMCAO): preventing the decline in neurological function
- protection against brain IR injury ([1]; i.v. infusion during rat tMCAO): protective
- volume of infarcted brain tissue caused by IR injury ([1]; i.v. infusion during rat tMCAO): decreasing the volume of infarcted brain tissue
- pyknotic nuclear morphology and vacuolation of the neuropil (histology) ([1]; i.v. infusion during rat tMCAO, hematoxylin and eosin): reducing the pyknotic nuclear morphology and vacuolation of the neuropil
- succinate accumulation in the ischaemic myocardium [2]: strikingly decreased succinate accumulation
